Assay: solubility in solvents
Assay type: physicochemical
Conditions: in water, highly water-soluble organic solvents, and highly fat-soluble organic solvents; free form

Compound: COc1cc(C#Cc2nn([C@H]3CCNC3)c3ncnc(N)c23)cc(OC)c1 [compound B, (S)-3-((3,5-dimethoxyphenyl)ethynyl)-1-(pyrrolidin-3-yl)-1H-pyrazolo[3,4-d]pyrimidin-4-amine]
- solubility: easily soluble

From patent US20210387990A1, “METHOD FOR PRODUCING DIMETHOXYBENZENE COMPOUND” (TAIHO PHARMACEUTICAL CO., LTD., priority 2018, published 2021)
